According to US20260184663A1, “INDENE COMPOUNDS, PHARMACEUTICAL COMPOSITIONS THEREOF, AND THEIR THERAPEUTIC APPLICATIONS” (NucMito Pharmaceuticals co. Ltd., priority 2022, published 2026):
Read-outs that look alike come from different tables or passages of the source.

How the values were obtained:
Format in all cases: cell-based
[1] = system: A431 (epidermoid carcinoma); experiment: Antiproliferative activity (CCK-8 cell viability), A431; settings: Homo sapiens, 72 h, read-out: Antiproliferative activity in cancerous cells, A431 (inhibition of cell growth); for inhibition at 3.3 µM: A-431, Compound concentration: 3.3 μM; for inhibition at 10 µM: A-431, Compound concentration: 10 μM; for inhibition at 30 µM: A-431, Compound concentration: 30 μM
In short: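 Cell viability of compound-treated A431 cells was measured with a Cell Counting Kit-8. Each well received 10 μL of CCK-8 after 72 h of compound exposure, followed by 4 h incubation at 37° C. and a 450 nm plate-reader measurement. Percent viability was calculated relative to DMSO controls across replicates.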

[2] = system: HepG2 (liver cancer); experiment: Antiproliferative activity (CCK-8 cell viability), HepG2; settings: Homo sapiens, 72 h; for inhibition at 3.3 µM: Compound concentration: 3.3 μM; for inhibition at 10 µM: Compound concentration: 10 μM; for inhibition at 30 µM: Compound concentration: 30 μM
In short: (§1)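 Cells were seeded at 2,000-5,000/well (HeLa in MEM, HepG2 and SW480 in DMEM, A549 in F-12K, all with 10% FBS) and treated with compound at 3.3, 10 or 30 μM for 72 h at 37° C. CCK-8 was added for 4 h, absorbance was read at 450 nm, and viability was expressed relative to DMSO-treated wells.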

[3] = system: SW480 (colon cancer); experiment: Antiproliferative activity (CCK-8 cell viability), SW480; settings: Homo sapiens, 72 h; for inhibition at 3.3 µM: Compound concentration: 3.3 μM; for inhibition at 10 µM: Compound concentration: 10 μM; for inhibition at 30 µM: Compound concentration: 30 μM
In short: as §1

[4] = system: HeLa (cervical cancer); experiment: Antiproliferative activity (CCK-8 cell viability), HeLa; settings: Homo sapiens, 72 h; for inhibition at 3.3 µM: Compound concentration: 3.3 μM; for inhibition at 10 µM: Compound concentration: 10 μM; for inhibition at 30 µM: Compound concentration: 30 μM
In short: as §1

[5] = system: alpha-smooth muscle actin (α-SMA); experiment: Inhibition of TGF-β induced expression of alpha-smooth muscle actin (α-SMA) in CFSC cells (western blot); settings: compound at 10 μM, TGF-β (10 ng/mL), 24 hours, band intensity vs TGF-β only
In short: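 CFSC hepatic stellate cells in serum-free DMEM treated 24 h at 37 °C with compound at 10 μM plus TGF-β (10 ng/mL). α-SMA measured by Western blot with β-actin, ECL detection, densitometry. Percent inhibition is decrease in band intensity versus TGF-β-only cells.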

[6] = system: A549 (lung adenocarcinoma); experiment: Antiproliferative activity (CCK-8 cell viability), A549; settings: Homo sapiens, 72 h; for inhibition at 3.3 µM: Compound concentration: 3.3 μM; for inhibition at 10 µM: Compound concentration: 10 μM; for inhibition at 30 µM: Compound concentration: 30 μM
In short: as §1

[7] = system: MDA-MB-231 (breast cancer); experiment: Antiproliferative activity (CCK-8 cell viability), MDA-MB-231; settings: Homo sapiens, 72 h; for inhibition at 3.3 µM: Compound concentration: 3.3 μM; for inhibition at 10 µM: Compound concentration: 10 μM; for inhibition at 30 µM: Compound concentration: 30 μM
In short: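 In this CCK-8 viability assay, MDA-MB-231 cells maintained in Dulbecco's modified Eagle's medium containing 10% fetal bovine serum were placed in 96-well plates (2,000-5,000 cells/well) and treated with compound for 72 h at 37° C. A 4 h incubation with 10 μL CCK-8 followed, plates were read at 450 nm, and viability was expressed against DMSO vehicle wells across replicates.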

[8] = system: B16F10 (malignant melanoma); experiment: Antiproliferative activity (CCK-8 cell viability), B16F10; settings: Mus musculus, 72 h, read-out: Antiproliferative activity in cancerous cells, B16F10 (inhibition of cell growth); for inhibition at 3.3 µM: B16-F10, Compound concentration: 3.3 μM; for inhibition at 10 µM: B16-F10, Compound concentration: 10 μM; for inhibition at 30 µM: B16-F10, Compound concentration: 30 μM
In short: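 Attached B16F10 cells in 96-well plates were incubated with compound at 37° C for 72 h, followed by 10 μL CCK-8 reagent per well and a further 4 h incubation. A multi-well plate reader measured absorbance at 450 nm. Percent viability across replicates was calculated against DMSO vehicle-treated cells.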

[9] = read-out: Antiproliferative activity in cancerous cells, HepG2 (inhibition of cell growth)
[10] = read-out: Antiproliferative activity in cancerous cells, SW480 (inhibition of cell growth)
[11] = read-out: Antiproliferative activity in cancerous cells, HELA (inhibition of cell growth)
[12] = read-out: Antiproliferative activity in cancerous cells, A549 (inhibition of cell growth)
[13] = read-out: Antiproliferative activity in cancerous cells, MDA-MB-231 (inhibition of cell growth)

| Structure (SMILES) | inhibition at 3.3 µM [1] | inhibition at 10 µM [1] | inhibition at 30 µM [1] | inhibition at 3.3 µM [2, 9] | inhibition at 10 µM [2, 9] | inhibition at 30 µM [2, 9] | inhibition at 3.3 µM [3, 10] | inhibition at 10 µM [3, 10] | inhibition at 30 µM [3, 10] | inhibition at 3.3 µM [4, 11] | inhibition at 10 µM [4, 11] | inhibition at 30 µM [4, 11] | inhibition at 10 µM [5] | inhibition at 3.3 µM [6, 12] | inhibition at 10 µM [6, 12] | inhibition at 30 µM [6, 12] | inhibition at 3.3 µM [7, 13] | inhibition at 10 µM [7, 13] | inhibition at 3.3 µM [8] | inhibition at 10 µM [8] | also measured |
| --- | --- | --- | --- | --- | --- | --- | --- | --- | --- | --- | --- | --- | --- | --- | --- | --- | --- | --- | --- | --- | --- |
| CC1=C(CC(=O)O)c2cc(F)cc(F)c2/C1=C/c1ccc(COc2ccccc2)cc1 [E2, (E)-2-(5,7-Difluoro-2-methyl-1-(4-(phenoxymethyl)benzylidene)-1H-inden-3-yl)-acetic acid] | 30 to 50% | ≥ 50% | ≥ 50% | 30 to 50% | ≥ 50% | ≥ 50% | ≥ 50% | ≥ 50% | ≥ 50% | ≥ 50% | ≥ 50% | ≥ 50% | 50 to 80% | < 30% | 30 to 50% | ≥ 50% | < 30% | ≥ 50% | ≥ 50% | ≥ 50% | inhibition at 30 µM [7, 13]: ≥ 50%; inhibition at 30 µM [8]: ≥ 50% |
| CC1=C(CC(=O)O)c2c(F)cccc2/C1=C\c1ccc(Oc2ccc(F)cc2)cc1 [C9, (Z)-2-(4-Fluoro-1-(4-(4-fluorophenoxy)benzylidene)-2-methyl-1H-inden-3-yl)-acetic acid] | 30 to 50% | 30 to 50% |  | 30 to 50% | < 30% |  | < 30% | < 30% |  | < 30% | < 30% |  | < 30% | < 30% | < 30% |  | 30 to 50% | 30 to 50% | ≥ 50% | ≥ 50% | inhibition at 30 µM ([2]; read-out: Antiproliferative activity in cancerous cells, HepG2): 30 to 50%; inhibition at 30 µM ([3]; read-out: Antiproliferative activity in cancerous cells, SW480): < 30%; inhibition at 30 µM ([4]; read-out: Antiproliferative activity in cancerous cells, HELA): < 30%; inhibition at 30 µM ([6]; read-out: Antiproliferative activity in cancerous cells, A549): < 30%; inhibition at 30 µM ([7]; read-out: Antiproliferative activity in cancerous cells, MDA-MB-231): 30 to 50% |
| CCCC1=C(CC(=O)O)c2cc(F)ccc2/C1=C\c1cccc(Oc2ccccc2)c1 [C22, (Z)-2-(5-Fluoro-1-(3-phenoxybenzylidene)-2-propyl-1H-inden-3-yl)acetic acid] | < 30% | ≥ 50% |  | < 30% | ≥ 50% |  | < 30% | 30 to 50% |  | < 30% | ≥ 50% |  | > 80% | ≥ 50% | ≥ 50% |  | ≥ 50% | ≥ 50% | 30 to 50% | ≥ 50% |  |
| CC1=C(CC(=O)O)c2ccc(F)c(F)c2/C1=C/c1cccc(Oc2ccccc2)c1 [E4, (E)-2-(6,7-Difluoro-2-methyl-1-(3-phenoxybenzylidene)-1H-inden-3-yl)acetic acid] | < 30% | < 30% | ≥ 50% | < 30% | 30 to 50% | ≥ 50% | < 30% | < 30% | ≥ 50% | 30 to 50% | ≥ 50% | ≥ 50% | > 80% | < 30% | ≥ 50% | ≥ 50% | < 30% | 30 to 50% | < 30% | ≥ 50% | inhibition at 30 µM [7, 13]: ≥ 50%; inhibition at 30 µM [8]: ≥ 50% |
| CC1=C(CC(=O)O)c2c(F)ccc(F)c2/C1=C/c1ccc(C(F)(F)F)cc1 [E15, (E)-2-(4,7-Difluoro-2-methyl-1-(4-(trifluoromethyl)benzylidene)-1H-inden-3-yl)-acetic acid] | < 30% | < 30% | ≥ 50% | < 30% | < 30% | < 30% | < 30% | < 30% | < 30% | < 30% | 30 to 50% | ≥ 50% | < 30% | < 30% | < 30% | ≥ 50% | ≥ 50% | ≥ 50% | < 30% | < 30% | inhibition at 30 µM [7, 13]: ≥ 50%; inhibition at 30 µM [8]: ≥ 50% |
| CC1=C(CC(=O)NCCN(C)C)c2cc(F)ccc2/C1=C\c1ccc(Oc2ccc(F)cc2)cc1 [C38, (Z)-N-(2-(Dimethylamino)ethyl)-2-(5-fluoro-1-(4-(4-fluorophenoxy)benzylidene)-2-methyl-1H-inden-3-yl)acetamide] | < 30% | ≥ 50% |  | < 30% | ≥ 50% |  | < 30% | ≥ 50% |  | < 30% | ≥ 50% |  | > 80% | ≥ 50% | ≥ 50% |  | < 30% | ≥ 50% | ≥ 50% | ≥ 50% |  |
| CC1=C(CC(=O)O)c2cc(F)ccc2/C1=C\c1ccccc1OCc1ccccc1 [B28, (Z)-2-(1-(2-(Benzyloxy)benzylidene)-5-fluoro-2-methyl-1H-inden-3-yl)acetic acid] | ≥ 50% | ≥ 50% |  | ≥ 50% | ≥ 50% |  | 30 to 50% | ≥ 50% |  | ≥ 50% | ≥ 50% |  | > 80% | 30 to 50% | ≥ 50% |  | 30 to 50% | ≥ 50% | < 30% | 30 to 50% |  |
